Measured values as given in patent US7250422B2 (priority 2002, dated 2007).

What was measured:
[1] = tested on: Male ICR mice; conditions: berberine 1, 3 and 10 mg/kg i.p. 30 min before morphine 5 mg/kg s.c.; FIG. 3
[2] = tested on: Male ICR mice; test: Conditioned place preference test for psychological dependence on morphine; conditions: p<0.01, FIG. 1
Text: (§1) 10 to 15 mice per group were used.

[3] = tested on: rats; conditions: intraperitoneal injection; cited from earlier work
[4] = tested on: Male ICR mice; test: Spontaneous locomotor activity increased by morphine (Video-tracking system); format: in vivo; conditions: for locomotor activity (steps): six days; for suppression of locomotor activity increased by morphine vs morphine control group: p<0.001
Experimental: as §1
Spontaneous locomotor activity was tested in a plastic chamber (26×30×30 cm) using a Video-tracking system. […] Immediately after the last administration, the mice were placed in the plastic chamber, and spontaneous locomotor activity was recorded for 30 min and analyzed using a computer program.

[5] = tested on: mice; test: Hot-plate test, morphine tolerance caused by repeated administration; format: in vivo; conditions: berberine 10 mg/kg i.p. 30 min before morphine 10 mg/kg s.c., six days, tested day 7; P<0.01; FIG. 4

Row | SMILES | effect on the analgesic effect of morphine (AUC of % MPE) [1] | inhibition of psychological dependence on morphine ([2]; berberine 1 or 2 mg/kg orally one hour before morphine 5 mg/kg i.p., equal to saline control) | LD50 [3] [mg/kg] | locomotor activity (steps) ([4]; berberine 1 mg/kg orally one hour before morphine 10 mg/kg, recorded 30 min) | suppression of locomotor activity increased by morphine vs morphine control group ([4]; berberine 1 mg/kg orally) [%] | locomotor activity (steps) ([4]; berberine 2 mg/kg orally one hour before morphine 10 mg/kg, recorded 30 min) | suppression of locomotor activity increased by morphine vs morphine control group ([4]; berberine 2 mg/kg orally) [%] | inhibition of the development of morphine tolerance (AUC) [5] | development of psychological dependence (testing time minus preconditioning time) ([2]; morphine control, 5 mg/kg i.p. on days 3, 5, 7, 9) | locomotor activity (steps by a forefoot) ([4]; only morphine 10 mg/kg once per day for six days, recorded 30 min) [steps]
1 | COc1ccc2cc3[n+](cc2c1OC)CCc1cc2c(cc1-3)OCO2 [berberine, 7,8,13,13a-tetradihydro-9,10-dimethoxy-2,3-(methyldioxy)berbinium] | rarely affect the analgesic effect of morphine | completely inhibited | 90 | 19744 | 61 | 20027 | 60 | significantly inhibited |  | 
2 | CN1CC[C@]23c4c5ccc(O)c4O[C@H]2[C@@H](O)C=C[C@H]3[C@H]1C5 [morphine] |  |  |  |  |  |  |  |  | significant psychological dependence | 50242
